The text below walks through data of US6756045B1, “Topically applied idebenone-containing agent with protective and regenerative effect” (priority 1999, dated 2004).

For series [1], the system named is macrophage LDL oxidation systems. The series can be described thus: macrophage LDL oxidation system, lipid hydroperoxides by HPLC chemiluminescence. It counts as cell-based. The conditions noted are these: for antioxidative effect in combination with tocopherol: combined with tocopherol, in the course of time, after 24 hours. From the text:
In separate pre-tests, idebenone was used in the macrophage LDL oxidation systems as anti-oxidant by way of comparison to alpha-tocopherol, ascorbic acid, coenzyme Q-10 and glutathione. This system is suitable for the simulation of cell-promoted oxidation of lipids induced by lipoxygenase, such as for example occurs due to UV radiation. To determine the antioxidative effect of the individual substances, the amount of primary degradation products of lipid peroxidation, the lipid hydroperoxides, occurring in the course of time after 8 or 24 hours was determined by means of an HPLC chemiluminescence method (E. Wieland et al., Fresenius J. Anal. Chem., 343, 62-63 (1992)). […] The values given in the following tables relate to nmoles of measured lipid hydroperoxides per mg of LDL protein.

For series [2] the following is noted: oral administration; cited from earlier work.
A further series relates to tissue. To be noted: in the tissue under pro-oxidative conditions; cited from earlier work.
The mark [3] stands for this setting: oxidation system A (Mk + LDL), 50 μmoles/litre antioxidant, 8 hours.
Setting [4] is: oxidation system A (Mk + LDL), 50 μmoles/litre antioxidant, 24 hours.
[5] abbreviates: oxidation system B (Mk + LDL + 100 μmoles/liter α-tocopherol), 50 μmoles/litre further antioxidant, 8 hours.
Where [6] appears, read: oxidation system B (Mk + LDL + 100 μmoles/liter α-tocopherol), 50 μmoles/litre further antioxidant, 24 hours.
Where [7] appears, read: oxidation system A (Mk + LDL), 10 μmoles/litre antioxidant, 8 hours.
[8] abbreviates: oxidation system A (Mk + LDL), 10 μmoles/litre antioxidant, 24 hours.
[9] abbreviates: oxidation system B (Mk + LDL + 100 μmoles/liter α-tocopherol), 10 μmoles/litre further antioxidant, 8 hours.
Where [10] appears, read: oxidation system B (Mk + LDL + 100 μmoles/liter α-tocopherol), 10 μmoles/litre further antioxidant, 24 hours.

Turning to `O=C1O[C@H]([C@@H](O)CO)C(O)=C1O` [ascorbic acid], the “antioxidative effect in combination with tocopherol” value in series [1] was “significantly lower antioxidative effect”. Further, the lipid hydroperoxides in series [1] (setting [3]) is listed as 0 nmoles per mg of LDL protein; in series [1] (setting [4]) it was 1.7 nmoles per mg of LDL protein; in series [1] (setting [5]), 1.7 nmoles per mg of LDL protein; in series [1] (setting [6]), 25.3 nmoles per mg of LDL protein.
`Cc1c(C)c2c(c(C)c1O)CC[C@@](C)(CCC[C@H](C)CCC[C@H](C)CCCC(C)C)O2` [α-tocopherol, alpha-tocopherol]: the lipid hydroperoxides in series [1] (oxidation system A (Mk + LDL), 100 μmoles/litre antioxidant, 8 hours) is recorded as 32.8 nmoles per mg of LDL protein; in series [1] (oxidation system A (Mk + LDL), 100 μmoles/litre antioxidant, 24 hours) it was 198.0 nmoles per mg of LDL protein.
On to `COC1=C(OC)C(=O)C(C/C=C(\C)CC/C=C(\C)CC/C=C(\C)CC/C=C(\C)CC/C=C(\C)CC/C=C(\C)CC/C=C(\C)CC/C=C(\C)CC/C=C(\C)CCC=C(C)C)=C(C)C1=O` [coenzyme Q-10], for which the lipid hydroperoxides in series [1] (setting [7]) is reported as 69 nmoles per mg of LDL protein; in series [1] (setting [8]), 115.8 nmoles per mg of LDL protein; in series [1] (setting [9]), 26.8 nmoles per mg of LDL protein; in series [1] (setting [10]) it was 143.7 nmoles per mg of LDL protein.
On to `COC1=C(OC)C(=O)C(CCCCCCCCCCO)=C(C)C1=O` [idebenone, 6-(10-hydroxydecyl)-2,3-dimethoxy-5-methyl-1,4-benzoquinone], for which the “antioxidative effect in combination with tocopherol” value in series [1] is “reliably intercept the pro-oxidative effect of tocopherol oxidation products”. Moreover, in series [1] (idebenone 10 μmoles/liter vs ascorbic acid 50, alpha-tocopherol 100, glutathione 50 μmoles/liter), the “antioxidative effect compared to ascorbic acid, alpha-tocopherol and glutathione” value is “clearly stronger antioxidative effect”. The lipid hydroperoxides in series [1] (setting [7]) is on record as 0 nmoles per mg of LDL protein; in series [1] (setting [8]) it was 0 nmoles per mg of LDL protein; in series [1] (setting [9]) it was 1.9 nmoles per mg of LDL protein; in series [1] (setting [10]) it was 2.6 nmoles per mg of LDL protein. In addition, the toxic effects entry in series [2] is on record as “no toxic effects”. In addition, the “protection against loss of alpha-tocopherol and coenzyme Q-10” value in the series on tissue was “protection against the loss of alpha-tocopherol and coenzyme Q-10”.
For `N[C@@H](CCC(=O)N[C@@H](CS)C(=O)NCC(=O)O)C(=O)O` [glutathione], the lipid hydroperoxides is reported as 51.7 nmoles per mg of LDL protein in series [1] (setting [3]), 119.0 nmoles per mg of LDL protein in series [1] (setting [4]), 23.3 nmoles per mg of LDL protein in series [1] (setting [5]) and 129.8 nmoles per mg of LDL protein in series [1] (setting [6]).
